{"source": "ChEMBL document CHEMBL3232814", "about": "“Synthesis and anticancer structure activity relationship investigation of cationic anthraquinone analogs” (2014)", "type_in_all_cases": "functional", "key": {"[1]": {"test_system": "U-251", "assay": "Growth inhibition of human U251 cells"}, "[2]": {"test_system": "A549", "assay": "Growth inhibition of human A549 cells"}, "[3]": {"assay": "Growth inhibition of human SF295 cells", "conditions": "SF-295"}, "[4]": {"test_system": "NCI-H23", "assay": "Growth inhibition of human NCI-H23 cells"}, "[5]": {"test_system": "COLO 205", "assay": "Growth inhibition of human COLO205 cells"}, "[6]": {"test_system": "SNB-75", "assay": "Growth inhibition of human SNB75 cells"}, "[7]": {"test_system": "Malme-3M", "assay": "Growth inhibition of human MALME-3M cells"}, "[8]": {"assay": "Growth inhibition of human UACC257 cells"}, "[9]": {"assay": "Growth inhibition of human HCC2998 cells"}, "[10]": {"assay": "Growth inhibition of human SF539 cells"}, "[11]": {"test_system": "HOP-62", "assay": "Growth inhibition of human HOP62 cells"}, "[12]": {"test_system": "SK-MEL-5", "assay": "Growth inhibition of human SK-MEL-5 cells"}, "[13]": {"test_system": "Staphylococcus aureus", "assay": "Antimicrobial activity against Staphylococcus aureus ATCC 25923 after 12 to 18 hrs by 2-fold serial dilution method"}, "[14]": {"test_system": "HT-29", "assay": "Growth inhibition of human HT-29 cells"}, "[15]": {"test_system": "SW-620", "assay": "Growth inhibition of human SW620 cells"}, "[16]": {"assay": "Growth inhibition of human LOXIMVI cells", "conditions": "LOX IMVI"}, "[17]": {"test_system": "SF-268", "assay": "Growth inhibition of human SF268 cells"}, "[18]": {"test_system": "KM12", "assay": "Growth inhibition of human KM12 cells"}, "[19]": {"assay": "Growth inhibition of human HCT15 cells"}, "[20]": {"assay": "Growth inhibition of human UACC62 cells"}, "[21]": {"assay": "Growth inhibition of human EKVX cells"}, "[22]": {"test_system": "SK-MEL-28", "assay": "Growth inhibition of human SK-MEL-28 cells"}, "[23]": {"test_system": "SK-MEL-2", "assay": "Growth inhibition of human SK-MEL-2 cells"}, "[24]": {"assay": "Growth inhibition of human NCI60 cells assessed as cell growth", "set-up": "concentration or dose not given beside the values"}, "[25]": {"test_system": "HCT-116", "assay": "Growth inhibition of human HCT116 cells"}, "[26]": {"assay": "Growth inhibition of human HOP92 cells"}, "[27]": {"test_system": "SNB-19", "assay": "Growth inhibition of human SNB19 cells"}, "[28]": {"test_system": "MDA-MB-435", "assay": "Growth inhibition of human MDA-MB-435 cells"}, "[29]": {"test_system": "M14", "assay": "Growth inhibition of human M14 cells"}, "[30]": {"test_system": "NCI-H460", "assay": "Growth inhibition of human NCI-H460 cells"}, "[31]": {"test_system": "NCI-H522", "assay": "Growth inhibition of human NCI-H522 cells"}, "[32]": {"conditions": "read-out: LC50 (the source's name)"}}, "data": [{"smiles": "COc1ccc(-n2n[n+](C)c3c2C(=O)c2ccccc2C3=O)cc1.O=S(=O)([O-])C(F)(F)F", "values": [{"measurement": "GI50", "setting": "[1]", "value": 1.16, "unit": "µM"}, {"measurement": "LC50", "setting": "[1]", "value": 5.77, "unit": "µM"}, {"measurement": "GI50", "setting": "[2]", "value": 0.33, "unit": "µM"}, {"measurement": "CC50", "setting": "[2]; [32]", "value": "> 100", "unit": "µM"}, {"measurement": "GI50", "setting": "[3]", "value": 0.63, "unit": "µM"}, {"measurement": "LC50 (concentration killing 50% of cells)", "setting": "[3]", "value": 5.25, "unit": "µM"}, {"measurement": "GI50", "setting": "[4]", "value": 1.05, "unit": "µM"}, {"measurement": "CC50", "setting": "[4]; [32]", "value": "> 100", "unit": "µM"}, {"measurement": "GI50", "setting": "[5]", "value": 0.23, "unit": "µM"}, {"measurement": "CC50", "setting": "[5]; [32]", "value": 0.96, "unit": "µM"}, {"measurement": "GI50", "setting": "[6]", "value": 1.25, "unit": "µM"}, {"measurement": "CC50", "setting": "[6]; [32]", "value": 5.15, "unit": "µM"}, {"measurement": "GI50", "setting": "[7]", "value": 0.24, "unit": "µM"}, {"measurement": "CC50", "setting": "[7]; [32]", "value": 2.11, "unit": "µM"}, {"measurement": "GI50", "setting": "[8]; UACC-257", "value": 1.45, "unit": "µM"}, {"measurement": "CC50", "setting": "[8]; UACC-257, read-out: LC50 (the source's name)", "value": 5.52, "unit": "µM"}, {"measurement": "GI50", "setting": "[9]; HCC 2998", "value": 0.45, "unit": "µM"}, {"measurement": "CC50", "setting": "[9]; HCC 2998, read-out: LC50 (the source's name)", "value": 4.72, "unit": "µM"}, {"measurement": "GI50", "setting": "[10]; SF-539", "value": 1.28, "unit": "µM"}, {"measurement": "CC50", "setting": "[10]; SF-539, read-out: LC50 (the source's name)", "value": 5.6, "unit": "µM"}, {"measurement": "GI50", "setting": "[11]", "value": 0.98, "unit": "µM"}, {"measurement": "CC50", "setting": "[11]; [32]", "value": 5.14, "unit": "µM"}, {"measurement": "GI50", "setting": "[12]", "value": 0.16, "unit": "µM"}, {"measurement": "LC50 (lethal concentration 50)", "setting": "[12]", "value": 0.61, "unit": "µM"}, {"measurement": "MIC", "setting": "[13]", "value": 4, "unit": "µg/mL"}, {"measurement": "GI50", "setting": "[14]", "value": 0.38, "unit": "µM"}, {"measurement": "LC50", "setting": "[14]", "value": "> 100", "unit": "µM"}, {"measurement": "GI50", "setting": "[15]", "value": 0.38, "unit": "µM"}, {"measurement": "CC50", "setting": "[15]; [32]", "value": 5.33, "unit": "µM"}, {"measurement": "GI50", "setting": "[16]", "value": 1.24, "unit": "µM"}, {"measurement": "GI50", "setting": "[17]", "value": 1.72, "unit": "µM"}, {"measurement": "CC50", "setting": "[17]; [32]", "value": "> 100", "unit": "µM"}, {"measurement": "GI50", "setting": "[18]", "value": 0.97, "unit": "µM"}, {"measurement": "CC50", "setting": "[18]; [32]", "value": 6.24, "unit": "µM"}, {"measurement": "GI50", "setting": "[19]; HCT-15", "value": 1.23, "unit": "µM"}, {"measurement": "CC50", "setting": "[19]; HCT-15, read-out: LC50 (the source's name)", "value": 7.17, "unit": "µM"}, {"measurement": "GI50", "setting": "[20]; UACC-62", "value": 1.01, "unit": "µM"}, {"measurement": "CC50", "setting": "[20]; UACC-62, read-out: LC50 (the source's name)", "value": 6.16, "unit": "µM"}, {"measurement": "GI50", "setting": "[21]", "value": 2.42, "unit": "µM"}, {"measurement": "CC50", "setting": "[21]; [32]", "value": 33, "unit": "µM"}, {"measurement": "GI50", "setting": "[22]", "value": 1.13, "unit": "µM"}, {"measurement": "CC50", "setting": "[22]; [32]", "value": 6.52, "unit": "µM"}, {"measurement": "GI50", "setting": "[23]", "value": 2.05, "unit": "µM"}, {"measurement": "CC50", "setting": "[23]; [32]", "value": "> 100", "unit": "µM"}, {"measurement": "Activity", "setting": "[24]", "value": -24.7, "unit": "%"}, {"measurement": "GI50", "setting": "[25]", "value": 0.37, "unit": "µM"}, {"measurement": "CC50", "setting": "[25]; [32]", "value": "> 100", "unit": "µM"}, {"measurement": "GI50", "setting": "[26]; HOP-92", "value": 3.47, "unit": "µM"}, {"measurement": "CC50", "setting": "[26]; HOP-92, read-out: LC50 (the source's name)", "value": "> 100", "unit": "µM"}, {"measurement": "GI50", "setting": "[27]", "value": 1.01, "unit": "µM"}, {"measurement": "LC50", "setting": "[27]", "value": 4.94, "unit": "µM"}, {"measurement": "GI50", "setting": "[28]", "value": 0.19, "unit": "µM"}, {"measurement": "CC50", "setting": "[28]; [32]", "value": 0.68, "unit": "µM"}, {"measurement": "GI50", "setting": "[29]", "value": 0.21, "unit": "µM"}, {"measurement": "CC50", "setting": "[29]; [32]", "value": 0.88, "unit": "µM"}, {"measurement": "GI50", "setting": "[30]", "value": 0.3, "unit": "µM"}, {"measurement": "CC50", "setting": "[30]; [32]", "value": 6.32, "unit": "µM"}, {"measurement": "GI50", "setting": "[31]", "value": 2.05, "unit": "µM"}, {"measurement": "CC50", "setting": "[31]; [32]", "value": 18.2, "unit": "µM"}]}]}
